# From ChEMBL document CHEMBL3085714 (J Med Chem, 2013)
# Key:
# Homo sapiens [1] = species on record: Homo sapiens; experiment: Selectivity for p38alpha MAP kinase (unknown origin) over EPHA3 (unknown origin)
# Homo sapiens [2] = species on record: Homo sapiens; experiment: Selectivity for p38alpha MAP kinase (unknown origin) over MST2 (unknown origin)
# Homo sapiens [3] = species on record: Homo sapiens; experiment: Selectivity for p38alpha MAP kinase (unknown origin) over FER (unknown origin)
# Homo sapiens [4] = species on record: Homo sapiens; experiment: Selectivity for p38alpha MAP kinase (unknown origin) over IGF1-R (unknown origin)
# Homo sapiens [5] = species on record: Homo sapiens; experiment: Selectivity for p38alpha MAP kinase (unknown origin) over mTOR (unknown origin)
# Homo sapiens [6] = species on record: Homo sapiens; experiment: Selectivity for p38alpha MAP kinase (unknown origin) over CDC42BPB (unknown origin)
# Homo sapiens [7] = species on record: Homo sapiens; experiment: Selectivity for p38alpha MAP kinase (unknown origin) over TGFB-R2 (unknown origin)
# Homo sapiens [8] = species on record: Homo sapiens; experiment: Selectivity for p38alpha MAP kinase (unknown origin) over TTK (unknown origin)
# Homo sapiens [9] = species on record: Homo sapiens; experiment: Selectivity for p38alpha MAP kinase (unknown origin) over GRK4 (unknown origin)
# Homo sapiens [10] = species on record: Homo sapiens; experiment: Selectivity for p38alpha MAP kinase (unknown origin) over INS-R (unknown origin)
# Homo sapiens [11] = species on record: Homo sapiens; experiment: Selectivity for p38alpha MAP kinase (unknown origin) over WNK2 (unknown origin)
# Homo sapiens [12] = species on record: Homo sapiens; experiment: Selectivity for p38alpha MAP kinase (unknown origin) over FGR (unknown origin)
# [13] = target: Mitogen-activated protein kinase 14 (Homo sapiens, UniProt Q16539); experiment: Competitive inhibition of p38alpha MAP kinase (unknown origin) in presence of 100 uM ATP
# Mitogen-activated protein kinase 14, sequence (Q16539 whole entry): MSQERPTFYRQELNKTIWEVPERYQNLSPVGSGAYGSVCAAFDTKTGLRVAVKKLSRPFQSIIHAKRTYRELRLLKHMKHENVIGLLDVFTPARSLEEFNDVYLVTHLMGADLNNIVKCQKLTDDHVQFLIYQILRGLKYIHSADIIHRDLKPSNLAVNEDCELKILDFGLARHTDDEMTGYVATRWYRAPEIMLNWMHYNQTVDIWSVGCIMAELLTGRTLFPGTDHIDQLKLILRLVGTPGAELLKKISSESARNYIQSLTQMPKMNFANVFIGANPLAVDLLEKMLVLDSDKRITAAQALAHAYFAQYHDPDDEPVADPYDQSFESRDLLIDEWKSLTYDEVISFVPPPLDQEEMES
# Homo sapiens [14] = species on record: Homo sapiens; experiment: Selectivity for p38alpha MAP kinase (unknown origin) over MEK2 (unknown origin)
# Homo sapiens [15] = species on record: Homo sapiens; experiment: Selectivity for p38alpha MAP kinase (unknown origin) over MET Y1230A mutant (unknown origin)
# Homo sapiens [16] = species on record: Homo sapiens; experiment: Selectivity for p38alpha MAP kinase (unknown origin) over DYRK1B (unknown origin)
# Homo sapiens [17] = species on record: Homo sapiens; experiment: Selectivity for p38alpha MAP kinase (unknown origin) over BMPR1A (unknown origin)
# Homo sapiens [18] = species on record: Homo sapiens; experiment: Selectivity for p38alpha MAP kinase (unknown origin) over EPHA1 (unknown origin)
# [19] = target: Mitogen-activated protein kinase 11 (Homo sapiens) (UniProt Q15759); experiment: Inhibition of p38beta MAP kinase (unknown origin) at 10 uM
# Mitogen-activated protein kinase 11 (Homo sapiens), sequence (Q15759 whole entry): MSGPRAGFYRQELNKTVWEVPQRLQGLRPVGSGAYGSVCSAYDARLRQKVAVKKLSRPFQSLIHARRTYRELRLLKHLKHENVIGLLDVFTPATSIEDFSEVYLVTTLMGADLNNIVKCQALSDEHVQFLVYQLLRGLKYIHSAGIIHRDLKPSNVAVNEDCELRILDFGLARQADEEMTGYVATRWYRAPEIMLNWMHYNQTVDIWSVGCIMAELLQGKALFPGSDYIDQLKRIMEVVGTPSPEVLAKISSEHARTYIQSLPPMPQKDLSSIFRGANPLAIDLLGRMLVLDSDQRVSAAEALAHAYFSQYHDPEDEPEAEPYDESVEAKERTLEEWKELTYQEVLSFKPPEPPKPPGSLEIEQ
# Homo sapiens [20] = species on record: Homo sapiens; experiment: Selectivity for p38alpha MAP kinase (unknown origin) over DNA-PK (unknown origin)
# Homo sapiens [21] = species on record: Homo sapiens; experiment: Selectivity for p38alpha MAP kinase (unknown origin) over IRAK4 (unknown origin)
# Homo sapiens [22] = species on record: Homo sapiens; experiment: Selectivity for p38alpha MAP kinase (unknown origin) over AXL (unknown origin)
# Homo sapiens [23] = species on record: Homo sapiens; experiment: Selectivity for p38alpha MAP kinase (unknown origin) over SRMS (unknown origin)
# [24] = target: STE20-like serine/threonine-protein kinase (Homo sapiens) (UniProt Q9H2G2); experiment: Inhibition of SLK (unknown origin) at 10 uM
# STE20-like serine/threonine-protein kinase (Homo sapiens), sequence (Q9H2G2 whole entry, looked up): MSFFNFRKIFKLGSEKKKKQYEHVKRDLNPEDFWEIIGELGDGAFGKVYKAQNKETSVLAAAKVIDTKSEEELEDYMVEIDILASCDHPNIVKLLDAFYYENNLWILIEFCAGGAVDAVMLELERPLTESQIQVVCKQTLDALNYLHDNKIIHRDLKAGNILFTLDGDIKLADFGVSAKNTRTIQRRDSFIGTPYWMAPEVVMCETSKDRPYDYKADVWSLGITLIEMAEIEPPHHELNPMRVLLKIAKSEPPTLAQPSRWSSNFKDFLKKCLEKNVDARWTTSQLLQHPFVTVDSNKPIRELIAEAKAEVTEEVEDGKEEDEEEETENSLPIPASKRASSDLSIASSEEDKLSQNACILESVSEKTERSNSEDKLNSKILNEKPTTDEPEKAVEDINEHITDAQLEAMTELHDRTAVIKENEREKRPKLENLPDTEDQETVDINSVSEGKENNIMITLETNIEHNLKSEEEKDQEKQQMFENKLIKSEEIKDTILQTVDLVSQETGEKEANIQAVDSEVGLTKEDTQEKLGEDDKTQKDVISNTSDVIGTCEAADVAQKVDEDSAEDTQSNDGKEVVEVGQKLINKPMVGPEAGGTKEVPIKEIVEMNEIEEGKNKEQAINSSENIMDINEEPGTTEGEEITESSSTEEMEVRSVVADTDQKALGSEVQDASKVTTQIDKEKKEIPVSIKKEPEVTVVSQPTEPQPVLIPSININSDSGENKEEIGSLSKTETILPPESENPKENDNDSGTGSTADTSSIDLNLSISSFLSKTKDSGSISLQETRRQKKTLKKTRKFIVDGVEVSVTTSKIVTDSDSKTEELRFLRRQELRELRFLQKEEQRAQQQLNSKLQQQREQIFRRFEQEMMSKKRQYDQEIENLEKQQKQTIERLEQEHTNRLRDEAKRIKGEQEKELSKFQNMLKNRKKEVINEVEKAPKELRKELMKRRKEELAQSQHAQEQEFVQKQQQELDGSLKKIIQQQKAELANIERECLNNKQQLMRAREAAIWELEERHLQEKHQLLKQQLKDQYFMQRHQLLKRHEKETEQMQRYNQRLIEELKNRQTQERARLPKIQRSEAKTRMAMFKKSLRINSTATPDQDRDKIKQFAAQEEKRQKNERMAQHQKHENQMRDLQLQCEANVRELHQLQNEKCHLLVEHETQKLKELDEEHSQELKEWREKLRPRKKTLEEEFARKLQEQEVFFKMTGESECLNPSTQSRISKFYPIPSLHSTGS
# Homo sapiens [25] = species on record: Homo sapiens; experiment: Selectivity for p38alpha MAP kinase (unknown origin) over EPHB2 (unknown origin)
# Homo sapiens [26] = species on record: Homo sapiens; experiment: Selectivity for p38alpha MAP kinase (unknown origin) over NEK2 (unknown origin)
# Homo sapiens [27] = species on record: Homo sapiens; experiment: Selectivity for p38alpha MAP kinase (unknown origin) over ZAK (unknown origin)
# Homo sapiens [28] = species on record: Homo sapiens; experiment: Selectivity for p38alpha MAP kinase (unknown origin) over EGFR 747 to 752 deletion/P753S mutant (unknown origin)
# Homo sapiens [29] = species on record: Homo sapiens; experiment: Selectivity for p38alpha MAP kinase (unknown origin) over PKC-nu (unknown origin)
# Homo sapiens [30] = species on record: Homo sapiens; experiment: Selectivity for p38alpha MAP kinase (unknown origin) over wild type FGFR1 (unknown origin)
# Homo sapiens [31] = species on record: Homo sapiens; experiment: Selectivity for p38alpha MAP kinase (unknown origin) over TEC (unknown origin)
# Homo sapiens [32] = species on record: Homo sapiens; experiment: Selectivity for p38alpha MAP kinase (unknown origin) over DAPK2 (unknown origin)
# Homo sapiens [33] = species on record: Homo sapiens; experiment: Selectivity for p38alpha MAP kinase (unknown origin) over PAK2 (unknown origin)
# Homo sapiens [34] = species on record: Homo sapiens; experiment: Selectivity for p38alpha MAP kinase (unknown origin) over SGK1 (unknown origin)
# Homo sapiens [35] = species on record: Homo sapiens; experiment: Selectivity for p38alpha MAP kinase (unknown origin) over EGFR T790M mutant (unknown origin)
# Homo sapiens [36] = species on record: Homo sapiens; experiment: Selectivity for p38alpha MAP kinase (unknown origin) over EGFR G719S mutant (unknown origin)
# Homo sapiens [37] = species on record: Homo sapiens; experiment: Selectivity for p38alpha MAP kinase (unknown origin) over CDK1/CycB1 (unknown origin)
# [38] = target: Calcium/calmodulin-dependent protein kinase type II subunit delta (Homo sapiens) (UniProt Q13557); experiment: Inhibition of CAMK2D (unknown origin) at 10 uM
# Calcium/calmodulin-dependent protein kinase type II subunit delta (Homo sapiens), sequence (Q13557 whole entry): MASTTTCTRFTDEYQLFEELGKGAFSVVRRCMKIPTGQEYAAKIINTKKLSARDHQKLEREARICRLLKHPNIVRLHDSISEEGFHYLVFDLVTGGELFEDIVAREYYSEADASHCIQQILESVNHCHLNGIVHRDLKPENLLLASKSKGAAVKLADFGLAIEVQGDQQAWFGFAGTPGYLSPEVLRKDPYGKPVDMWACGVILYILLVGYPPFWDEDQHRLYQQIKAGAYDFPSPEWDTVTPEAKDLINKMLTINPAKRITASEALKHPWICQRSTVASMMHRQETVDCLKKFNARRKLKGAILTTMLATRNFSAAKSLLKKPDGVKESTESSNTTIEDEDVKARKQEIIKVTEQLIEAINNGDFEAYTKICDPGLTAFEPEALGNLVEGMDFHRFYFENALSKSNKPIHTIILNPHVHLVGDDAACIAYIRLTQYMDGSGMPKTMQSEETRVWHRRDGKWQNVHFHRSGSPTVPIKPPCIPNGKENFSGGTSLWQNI
# Homo sapiens [39] = species on record: Homo sapiens; experiment: Selectivity for p38alpha MAP kinase (unknown origin) over SGK3 (unknown origin)
# Homo sapiens [40] = species on record: Homo sapiens; experiment: Selectivity for p38alpha MAP kinase (unknown origin) over EGFR G719C mutant (unknown origin)
# Homo sapiens [41] = species on record: Homo sapiens; experiment: Selectivity for p38alpha MAP kinase (unknown origin) over PIM1 (unknown origin)
# Homo sapiens [42] = species on record: Homo sapiens; experiment: Selectivity for p38alpha MAP kinase (unknown origin) over VEGF-R3 (unknown origin)
# Homo sapiens [43] = species on record: Homo sapiens; experiment: Selectivity for p38alpha MAP kinase (unknown origin) over RPS6KA5 (unknown origin)
# Homo sapiens [44] = species on record: Homo sapiens; experiment: Selectivity for p38alpha MAP kinase (unknown origin) over MET Y1230H mutant (unknown origin)
# Homo sapiens [45] = species on record: Homo sapiens; experiment: Selectivity for p38alpha MAP kinase (unknown origin) over RPS6KA1 (unknown origin)
# Homo sapiens [46] = species on record: Homo sapiens; experiment: Selectivity for p38alpha MAP kinase (unknown origin) over SNK (unknown origin)
# Homo sapiens [47] = species on record: Homo sapiens; experiment: Selectivity for p38alpha MAP kinase (unknown origin) over CLK1 (unknown origin)
# Homo sapiens [48] = species on record: Homo sapiens; experiment: Selectivity for p38alpha MAP kinase (unknown origin) over GRK7 (unknown origin)
# Homo sapiens [49] = species on record: Homo sapiens; experiment: Selectivity for p38alpha MAP kinase (unknown origin) over PCTAIRE1 (unknown origin)
# Homo sapiens [50] = species on record: Homo sapiens; experiment: Selectivity for p38alpha MAP kinase (unknown origin) over PDGFR-alpha D842V mutant (unknown origin)
# Homo sapiens [51] = species on record: Homo sapiens; experiment: Selectivity for p38alpha MAP kinase (unknown origin) over ABL1 Q252H mutant (unknown origin)
# Homo sapiens [52] = species on record: Homo sapiens; experiment: Selectivity for p38alpha MAP kinase (unknown origin) over wild type MET (unknown origin)
# Homo sapiens [53] = species on record: Homo sapiens; experiment: Selectivity for p38alpha MAP kinase (unknown origin) over CHK1 (unknown origin)
# Homo sapiens [54] = species on record: Homo sapiens; experiment: Selectivity for p38alpha MAP kinase (unknown origin) over PKC-zeta (unknown origin)
# Homo sapiens [55] = species on record: Homo sapiens; experiment: Selectivity for p38alpha MAP kinase (unknown origin) over ARK5 (unknown origin)
# Homo sapiens [56] = species on record: Homo sapiens; experiment: Selectivity for p38alpha MAP kinase (unknown origin) over EPHA8 (unknown origin)
# Homo sapiens [57] = species on record: Homo sapiens; experiment: Selectivity for p38alpha MAP kinase (unknown origin) over MET D1228H mutant (unknown origin)
# Homo sapiens [58] = species on record: Homo sapiens; experiment: Selectivity for p38alpha MAP kinase (unknown origin) over MET F1200I mutant (unknown origin)
# Homo sapiens [59] = species on record: Homo sapiens; experiment: Selectivity for p38alpha MAP kinase (unknown origin) over JNK3 (unknown origin)
# Homo sapiens [60] = species on record: Homo sapiens; experiment: Selectivity for p38alpha MAP kinase (unknown origin) over wild-type ABL1 (unknown origin)
# Homo sapiens [61] = species on record: Homo sapiens; experiment: Selectivity for p38alpha MAP kinase (unknown origin) over MAP3K7/MAP3K7IP1 (unknown origin)
compound,measurement,setting,value
Cc1cc(F)c(NC(=O)c2ccsc2)cc1Nc1ccc2c(c1)OCc1ccc(OC[C@H](O)CO)cc1C2=O,Selectivity ratio,Homo sapiens [1],> 1000
same,Selectivity ratio,Homo sapiens [2],> 1000
same,Selectivity ratio,Homo sapiens [3],> 1000
same,Selectivity ratio,Homo sapiens [4],> 1000
same,Selectivity ratio,Homo sapiens [5],> 1000
same,Selectivity ratio,Homo sapiens [6],> 1000
same,Selectivity ratio,Homo sapiens [7],> 1000
same,Selectivity ratio,Homo sapiens [8],> 1000
same,Selectivity ratio,Homo sapiens [9],> 1000
same,Selectivity ratio,Homo sapiens [10],> 1000
same,Selectivity ratio,Homo sapiens [11],> 1000
same,Selectivity ratio,Homo sapiens [12],> 1000
same,IC50,[13],1.6 nM
same,Selectivity ratio,Homo sapiens [14],> 1000
same,Selectivity ratio,Homo sapiens [15],> 1000
same,Selectivity ratio,Homo sapiens [16],> 1000
same,Selectivity ratio,Homo sapiens [17],> 1000
same,Selectivity ratio,Homo sapiens [18],> 1000
same,inhibition,[19],> 50%
same,Selectivity ratio,Homo sapiens [20],> 1000
same,Selectivity ratio,Homo sapiens [21],> 1000
same,Selectivity ratio,Homo sapiens [22],> 1000
same,Selectivity ratio,Homo sapiens [23],> 1000
same,inhibition,[24],> 50%
same,Selectivity ratio,Homo sapiens [25],> 1000
same,Selectivity ratio,Homo sapiens [26],> 1000
same,Selectivity ratio,Homo sapiens [27],> 1000
same,Selectivity ratio,Homo sapiens [28],> 1000
same,Selectivity ratio,Homo sapiens [29],> 1000
same,Selectivity ratio,Homo sapiens [30],> 1000
same,Selectivity ratio,Homo sapiens [31],> 1000
same,Selectivity ratio,Homo sapiens [32],> 1000
same,Selectivity ratio,Homo sapiens [33],> 1000
same,Selectivity ratio,Homo sapiens [34],> 1000
same,Selectivity ratio,Homo sapiens [35],> 1000
same,Selectivity ratio,Homo sapiens [36],> 1000
same,Selectivity ratio,Homo sapiens [37],> 1000
same,inhibition,[38],> 50%
same,Selectivity ratio,Homo sapiens [39],> 1000
same,Selectivity ratio,Homo sapiens [40],> 1000
same,Selectivity ratio,Homo sapiens [41],> 1000
same,Selectivity ratio,Homo sapiens [42],> 1000
same,Selectivity ratio,Homo sapiens [43],> 1000
same,Selectivity ratio,Homo sapiens [44],> 1000
same,Selectivity ratio,Homo sapiens [45],> 1000
same,Selectivity ratio,Homo sapiens [46],> 1000
same,Selectivity ratio,Homo sapiens [47],> 1000
same,Selectivity ratio,Homo sapiens [48],> 1000
same,Selectivity ratio,Homo sapiens [49],> 1000
same,Selectivity ratio,Homo sapiens [50],> 1000
same,Selectivity ratio,Homo sapiens [51],> 1000
same,Selectivity ratio,Homo sapiens [52],> 1000
same,Selectivity ratio,Homo sapiens [53],> 1000
same,Selectivity ratio,Homo sapiens [54],> 1000
same,Selectivity ratio,Homo sapiens [55],> 1000
same,Selectivity ratio,Homo sapiens [56],> 1000
same,Selectivity ratio,Homo sapiens [57],> 1000
same,Selectivity ratio,Homo sapiens [58],> 1000
same,Selectivity ratio,Homo sapiens [59],> 1000
same,Selectivity ratio,Homo sapiens [60],> 1000
same,Selectivity ratio,Homo sapiens [61],> 1000
